Experimental data: ChEMBL document CHEMBL6078620, “Design and synthesis of visible light-activatable photocaged peroxides for optical control of ROS-mediated cellular signaling” (Bioorg Med Chem, 2024)
Active and inactive are the calls of the source. The rule behind the calls is not given here.

Legend:
[1] = Photophysical property of the compound assessed as fluorescence quantum yield by UV-Visible spectrophotometric analysis; type: physicochemical
[2] = Chemical stability of compound in PBS buffer at pH 7.4 assessed as parent compound remaining measured after 60 mins by UHPLC analysis; type: physicochemical; details: read-out: Stability
HeLa [3] = experiment: Cytotoxicity against human HeLa cells assessed as TBHP release by measuring fluorescence intensity at 50 uM incubated for 5 mins in presence of light irradiation at 375 nm by confocal fluorescence microscopic analysis; type: functional, cell-based
HeLa [4] = experiment: Cytotoxicity against human HeLa cells at 25 uM by CCK-8 assay; type: functional, cell-based
HeLa [5] = experiment: Cytotoxicity against human HeLa cells assessed as reduction in cell survival upto 50 uM by CCK-8 assay; type: functional; details: up to 50 µM
HeLa [6] = experiment: Cytotoxicity against human HeLa cells assessed as TBHP release by measuring fluorescence intensity at 10 uM incubated for 5 mins in presence of light irradiation at 375 to 455 nm by confocal fluorescence microscopic analysis; type: functional, cell-based
HeLa [7] = experiment: Cytotoxicity against human HeLa cells assessed as reduction in cell survival upto 50 uM in presence of light irradiation by CCK-8 assay; type: functional; details: up to 50 µM

Structure (SMILES) | Activity [1] | remaining at 1 h [2] [%] | Activity (HeLa [3]) | Activity (HeLa [4]) | Activity (HeLa [5]) [%] | Activity (HeLa [6]) | Activity (HeLa [7]) [%]
CC(C)(C)OOC(=O)OCc1cc(=O)oc2c3c(c(Br)cc12)NCC3 | 0.14 | 68 |  |  |  |  | 
CC(C)(C)OOC(=O)OCc1cc(=O)oc2cc(O)c(Br)cc12 | 0.13 | 45 | Active |  |  |  | 
CC(=O)OC(=O)OCc1cc(=O)oc2cc(O)c(Br)cc12 | 0.04 |  |  |  |  |  | 
CC(C)(C)OOC(=O)OCc1cc(=O)oc2c3c(c(Br)cc12)NCCC3 | 0.082 | 50 |  | Active | 63 | Active | 46
